Assay results reported in the NIST ThermoML archive (doi:10.1021/je500792x).

Test: xn = mol fraction of the nth substance listed
Details: Gas, Buoyancy - hydrostatic balance with magnetic suspension - two sinkers

C [methane] + CCC
Details	mass density [kg/m3]
293.15 K, 1153.9 kPa, x1 = 0.2658	20.3554
293.15 K, 1175 kPa, x1 = 0.2658	20.8043
293.15 K, 1187.5 kPa, x1 = 0.2658	21.0718
293.15 K, 1209.4 kPa, x1 = 0.5069	16.361
293.15 K, 1399.6 kPa, x1 = 0.5069	19.2777
293.15 K, 1605.8 kPa, x1 = 0.5069	22.5759
298.14 K, 160.58 kPa, x1 = 0.2658	2.414
298.15 K, 311.48 kPa, x1 = 0.2658	4.7646
298.15 K, 471.27 kPa, x1 = 0.2658	7.3487
298.15 K, 493.82 kPa, x1 = 0.7498	4.6835
298.15 K, 500.2 kPa, x1 = 0.7498	4.742
298.15 K, 605.41 kPa, x1 = 0.2658	9.6013
298.15 K, 758.38 kPa, x1 = 0.2658	12.2732
298.15 K, 785.06 kPa, x1 = 0.7498	7.5358
298.15 K, 909.2 kPa, x1 = 0.2658	15.0282
298.15 K, 999.01 kPa, x1 = 0.7498	9.679
298.15 K, 1000.6 kPa, x1 = 0.7498	9.6924
298.15 K, 1055.1 kPa, x1 = 0.2658	17.8236
298.15 K, 1094 kPa, x1 = 0.7498	10.6384
298.15 K, 1201.2 kPa, x1 = 0.2658	20.7664
298.15 K, 1355.7 kPa, x1 = 0.2658	24.0659
298.15 K, 1372.4 kPa, x1 = 0.7498	13.507
298.15 K, 1686.6 kPa, x1 = 0.7498	16.8301
298.15 K, 1999.5 kPa, x1 = 0.7498	20.2389
298.15 K, 2001.4 kPa, x1 = 0.7498	20.2558
298.15 K, 2075.4 kPa, x1 = 0.7498	21.0754
298.15 K, 3006.3 kPa, x1 = 0.7498	31.9148
298.15 K, 3043.9 kPa, x1 = 0.7498	32.3714
298.15 K, 3990.5 kPa, x1 = 0.7498	44.5527
298.15 K, 4003.1 kPa, x1 = 0.7498	44.7224
298.15 K, 4119.5 kPa, x1 = 0.7498	46.3151
298.15 K, 4424.2 kPa, x1 = 0.7498	50.5647
298.15 K, 4993.9 kPa, x1 = 0.7498	58.9113
298.15 K, 5997.5 kPa, x1 = 0.7498	74.9816
298.15 K, 5999.6 kPa, x1 = 0.7498	75.0173
323.16 K, 434.83 kPa, x1 = 0.5069	4.9489
323.16 K, 609.43 kPa, x1 = 0.5069	7.005
323.16 K, 747.99 kPa, x1 = 0.7498	6.5657
323.16 K, 981.92 kPa, x1 = 0.7498	8.6824
323.16 K, 1028.4 kPa, x1 = 0.5069	12.1152
323.16 K, 1206.2 kPa, x1 = 0.5069	14.365
323.16 K, 1225.9 kPa, x1 = 0.7498	10.9233
323.16 K, 1407.1 kPa, x1 = 0.5069	16.9693
323.16 K, 1492.3 kPa, x1 = 0.7498	13.4094
323.16 K, 1603.4 kPa, x1 = 0.5069	19.5802
323.16 K, 1721 kPa, x1 = 0.7498	15.578
323.16 K, 1804.7 kPa, x1 = 0.5069	22.3318
323.16 K, 1913.8 kPa, x1 = 0.5069	23.855
323.16 K, 1988.8 kPa, x1 = 0.7498	18.1586
323.16 K, 3017.7 kPa, x1 = 0.7498	28.51
323.16 K, 4475.4 kPa, x1 = 0.7498	44.4692
323.16 K, 5928.8 kPa, x1 = 0.7498	62.0416
323.17 K, 161.42 kPa, x1 = 0.2658	2.2297
323.17 K, 240.14 kPa, x1 = 0.5069	2.7038
323.17 K, 277.8 kPa, x1 = 0.2658	3.8766
323.17 K, 380.81 kPa, x1 = 0.2658	5.3632
323.17 K, 474.08 kPa, x1 = 0.2658	6.7339
323.17 K, 556.87 kPa, x1 = 0.2658	7.9706
323.17 K, 653.58 kPa, x1 = 0.2658	9.4407
323.17 K, 814.12 kPa, x1 = 0.5069	9.4697
323.17 K, 861.14 kPa, x1 = 0.2658	12.694
323.17 K, 956.3 kPa, x1 = 0.2658	14.2336
323.17 K, 1057.6 kPa, x1 = 0.2658	15.9088
323.17 K, 1155.4 kPa, x1 = 0.2658	17.5614
373.14 K, 736.34 kPa, x1 = 0.5069	7.2655
373.14 K, 1298.1 kPa, x1 = 0.5069	13.0615
373.14 K, 1387.2 kPa, x1 = 0.5069	14.0021
373.14 K, 1906.7 kPa, x1 = 0.5069	19.6043
373.15 K, 286.24 kPa, x1 = 0.5069	2.7813
373.15 K, 293.98 kPa, x1 = 0.7498	2.1956
373.15 K, 494.25 kPa, x1 = 0.7498	3.7047
373.15 K, 559.53 kPa, x1 = 0.5069	5.4874
373.15 K, 587.98 kPa, x1 = 0.5069	5.7723
373.15 K, 732.21 kPa, x1 = 0.7498	5.5128
373.15 K, 776.15 kPa, x1 = 0.5069	7.6695
373.15 K, 942.67 kPa, x1 = 0.5069	9.3682
373.15 K, 969.14 kPa, x1 = 0.5069	9.6405
373.15 K, 973.87 kPa, x1 = 0.7498	7.3646
373.15 K, 1118.7 kPa, x1 = 0.5069	11.1859
373.15 K, 1177.4 kPa, x1 = 0.5069	11.7969
373.15 K, 1222.4 kPa, x1 = 0.7498	9.2859
373.15 K, 1491.1 kPa, x1 = 0.7498	11.3819
373.15 K, 1497 kPa, x1 = 0.5069	15.1688
373.15 K, 1581.5 kPa, x1 = 0.5069	16.0735
373.15 K, 1707.3 kPa, x1 = 0.5069	17.4293
373.15 K, 1745.3 kPa, x1 = 0.5069	17.8434
373.15 K, 1990.9 kPa, x1 = 0.7498	15.3338
373.15 K, 1998.3 kPa, x1 = 0.7498	15.3921
373.15 K, 1999.3 kPa, x1 = 0.5069	20.6289
373.15 K, 3998.4 kPa, x1 = 0.7498	31.915
373.15 K, 4503 kPa, x1 = 0.7498	36.2589
373.15 K, 5859.6 kPa, x1 = 0.7498	48.2829
373.16 K, 150.36 kPa, x1 = 0.2658	1.7881
373.16 K, 249.5 kPa, x1 = 0.2658	2.984
373.16 K, 442.47 kPa, x1 = 0.2658	5.3479
373.16 K, 487.18 kPa, x1 = 0.7498	3.6521
373.16 K, 564.91 kPa, x1 = 0.2658	6.8735
373.16 K, 592.63 kPa, x1 = 0.2658	7.2228
373.16 K, 676.04 kPa, x1 = 0.2658	8.2772
373.16 K, 733.18 kPa, x1 = 0.2658	9.007
373.16 K, 866.5 kPa, x1 = 0.2658	10.7249
373.16 K, 883.43 kPa, x1 = 0.2658	10.9464
373.16 K, 963.18 kPa, x1 = 0.2658	11.9881
373.16 K, 991.05 kPa, x1 = 0.7498	7.4967
373.16 K, 1034.3 kPa, x1 = 0.2658	12.9279
373.16 K, 1057.2 kPa, x1 = 0.2658	13.2303
373.16 K, 1156.4 kPa, x1 = 0.2658	14.557
373.16 K, 1174.7 kPa, x1 = 0.2658	14.8058
373.16 K, 1293.1 kPa, x1 = 0.2658	16.4139
373.16 K, 1468.2 kPa, x1 = 0.7498	11.1998
373.16 K, 1985.8 kPa, x1 = 0.7498	15.2929
373.16 K, 2987.4 kPa, x1 = 0.7498	23.4236
373.16 K, 2996.6 kPa, x1 = 0.7498	23.4974
373.16 K, 3945 kPa, x1 = 0.7498	31.4611
373.16 K, 4881.1 kPa, x1 = 0.7498	39.5669
373.16 K, 6041.3 kPa, x1 = 0.7498	49.9291
373.17 K, 281.96 kPa, x1 = 0.2658	3.3776
373.17 K, 361.95 kPa, x1 = 0.2658	4.3551
373.17 K, 469.53 kPa, x1 = 0.2658	5.683
